This note sets out measurements from ChEMBL document CHEMBL1127637, “Antiplatelet agents based on cyclooxygenase inhibition without ulcerogenesis. Evaluation and synthesis of 4,5-bis(4-methoxyphenyl)-2-substituted-thiazoles” (J Med Chem, 1994).

Holding throughout (format): functional
Test [1] is filed under the species Oryctolagus cuniculus. Put plainly: In vitro antiplatelet activity against arachidonic acid induced malondialdehyde production.
The species named for test [2] is Oryctolagus cuniculus. Put plainly: Inhibitory activity on the MDA production at 1 uM.
Test [3] is filed under the species Rattus norvegicus. As to the kind of experiment: In vitro vasodilatory activity in isolated rat aorta. As to conditions: read-out: ED50 (the source's name).
Test [4] concerns Rattus norvegicus. Put plainly: Induction of acute stomach lesion at a dose of 100 mg/Kg.
Test [5] has as its system Cavia porcellus. As to the kind of experiment: Inhibitory effect on platelet aggregation induced by Collagen in guinea pigs ex vivo at a dose of 3.2 mg/Kg after 6 hr of oral administration.
In test [6] the test system is Rattus norvegicus. Put plainly: Compound was evaluated for collagen-induced platelet aggregation ex vivo in rat at the dose of 100 mg/Kg.
Test [7] relates to Cavia porcellus. As to the kind of experiment: Inhibitory effect on platelet aggregation induced by Arachidonic acid (AA) in guinea pigs ex vivo at a dose of 3.2 mg/Kg after 6 hr of oral administration.
The test system of test [8] is Cavia porcellus. As to the kind of experiment: Inhibitory effect on platelet aggregation induced by Collagen in guinea pigs ex vivo at a dose of 1 mg/Kg after 6 hr of oral administration.
The subject of test [9] is Cavia porcellus. Put plainly: Inhibitory effect on platelet aggregation induced by Arachidonic acid (AA) in guinea pigs ex vivo at a dose of 1 mg/kg after 6 hr of oral administration.

Bounds are passed on as bounds.

As to `COc1ccc(-c2nc(/N=C(\N)N3CCOCC3)sc2-c2ccc(OC)cc2)cc1`, the IC50 (usually the concentration that inhibits the measured activity by half) in the test listed under Oryctolagus cuniculus [1] is under 1000 nM. Moreover, the Inhibition (in general, the drop in the measured response relative to a control, in per cent) in the test filed under Oryctolagus cuniculus [2] is recorded as 79.9%. Further, in the test listed under Rattus norvegicus [3], the EC50 came out at 66000 nM.
For the compound `COc1ccc(-c2nc(C(=O)N3CCN(C)CC3)sc2-c2ccc(OC)cc2)cc1` [FR-122047], in the test on Rattus norvegicus [4], the Ulcer index was 0. The same compound returned an IC50 in the test listed under Oryctolagus cuniculus [1] of 88 nM. Further, the inhibition in vivo at 3.2 mg/kg in the test with Cavia porcellus [5] and with Cavia porcellus [7] was 100% throughout. Besides, in the test on Rattus norvegicus [6], the median effective dose (ED50) (as a rule, the midpoint of the dose-response relation) came to 1.4 mg/kg. In addition, the values for the inhibition in vivo at 1 mg/kg in the test on Cavia porcellus [8] and in the test on Cavia porcellus [9] were 83.1% and 100%, respectively.
